# Key:
# Assay type in all cases: cell-based, human
# [1] = test system: hiPSC-CMs; experiment: Real-time PCR / immunostaining of cardiac gene expression in hiPSC-CMs; conditions: CHIR treatment, qPCR
# Description: For quantitative analysis of gene expression, RNA was extracted with a lysis buffer (Qiagen) from hiPSC-CMs and stored at −80° C. Total RNA from each sample was purified from cell lysate using a RNA purification kit (Qiagen). cDNA was made using iScript cDNA synthesis kit (BioRad). Quantitative PCR was performed using a 96-well thermocycler system (Biorad) with SYBR Green substrate (Affymetrix) for 40 cycles. All primers sequences were obtained from the PrimerBank (Massachusetts General Hospital/Harvard Medical School) online database. […] Day 12 hiPSC-CMs were cultured in CHIR continuously for 2 months with serial passaging followed by CHIR withdrawal for an additional month.
# [2] = test system: TCF/LEF; experiment: TOPFlash TCF/LEF luciferase reporter in day 30 hiPSC-CMs; conditions: day 30 cardiomyocytes, 2-hour treatment
# Description: […] and day 30 hiPSC-CMs were replated in 96-well plates and cultured for 2-3 days before transfection with Lipofectamine (Invitrogen) and TOPFlash (TCF/LEF) luciferase Wnt signaling reporter plasmid (M50, Addgene) at 100 ng/well. After 48 hours, media was changed, and cells were subjected to different treatments for 2 hours before lysis and luciferase (Promega) luminescence was measured with a standard luminescence plate reader. To determine the mechanism through which S1P/LPA regulate cell cycle activity in hiPSC-CMs, it was evaluated whether S1P and LPA treatment can directly stimulate Wnt/β-catenin signaling in day 30 cardiomyocytes using the TOPFlash (TCF/LEF-luciferase) reporter.
# [3] = test system: hiPSC-CMs; experiment: Cell cycle activity in well-differentiated hiPSC-CMs (ki67, pHH3, cell count)
# Description: To address this, well-differentiated hiPSC-CMs were generated (e.g. day 30 or later) using chemically-defined protocols (Burridge et al. 2014; Churko et al. 2013; Sharma et al. 2015) (Movie S1) and treated them with S1P/LPA or CHIR or both (FIG. 18A). The presence of S1P/LPA receptors in these cells was first validated (FIG. 21). Immunofluorescence staining was then performed for ki67, a marker of cell cycle activity, and phospho Histone H3 (pHH3), a mitosis marker, in cardiac troponin T (TnT) positive cells.
structure (smiles),measurement,setting,value
Cc1c[nH]c(-c2cnc(NCCNc3ccc(C#N)cn3)nc2-c2ccc(Cl)cc2Cl)n1 [CHIR99021],"Wnt signaling target gene expression (Axin2, LEF, CCND2)",[1],induction of Wnt signaling target gene expression
same,"markers of hiPSC-CM maturation (MYL2, MYH7, MYOM1)",[1],down-regulated
same,TCF/LEF-luciferase activity (TOPFlash),[2],activated
same,number of hiPSC-CMs,"[3]; treatment alone, 48 hours",increase in cell number
same,number of bi- or multinucleated cardiomyocytes,[3]; two-day treatment,did not increase the number of bi- or multinucleated cardiomyocytes

# From patent publication US12516293B2, “Reagents and methods with Wnt agonists and bioactive lipids for generating and expanding cardiomyocytes” (The Board of Trustees of the Leland Stanford Junior …, priority 2018, dated 2026)
